The text below walks through data of patent EP0507188A1, “Substituted 2',3'-dideoxy-5-trifluoromethyluridines, method of their preparation and their use in medicaments” (BAYER AG, priority 1991, dated 1992).

One series has as its system HEL-Zellen. The series is described as follows: Effect on vitality of other cells by incubation (HEL). The conditions noted are these: no influence on vitality up to this concentration. The class given is cell-based. The method, then: (§1) Die Wirkung des Beispiels 2 auf andere Zellen wurde durch Inkubation von HEL-, MEF-Zellen getestet. Es zeigte sich keine Beeinflussung der Vitalität dieser Zellen bis zu einer Konzentration von 250 µM.

A further series concerns MEF-Zellen. The series is described as follows: Effect on vitality of other cells by incubation (MEF). It counts as cell-based. The conditions noted are these: no influence on vitality up to this concentration. The method, then:
as §1

The subject of a further series is Hepatitis B Virus (HBV). Kind of series: HBV test system in HBV-DNA-transfected hepatoma cells (HEP G2.2.15): HBV DNA in supernatant, HBsAg ELISA. The class given is cell-based. The following applies: read-out: IC₅₀. The source says:
Es wurde überraschend gefunden, daß die erfindungsgemäßen Verbindungen der allgemeinen Formel (I) eine außerordentlich starke spezifische Wirkung gegen das Heptatitis B Virus (HBV) besitzen. Der Nachweis wurde in mit Hepatitis B Virus DNA transfizierten Hepatomzellen (HEP G2.2.15) geführt.
Die Ergebnisse der unten aufgeführten Beispiele wurden zu dem in der folgenden Literaturangabe [Sells, M.A.; Chen, M.L., Acs, G., Proc. Natl. Acad. Sci. USA S. 1005 - 1009, Vol. 84 (1987)] beschriebenen HBV Testsystem ermittelt: Transfizierte Hepatomzellen (HEP G2.2.15) wurden mit verschiedenen Konzentrationen an der jeweiligen Verbindung inkubiert. Durch Behandlung der transfizierten Hepatomzellinie HEP G2.2.15 mit den erfindungsgemäßen Verbindungen konnte das […] der virusspezifischen HBV DNA im Überstand sowie eine Reduktion des HBsAg Spiegels gezeigt werden. Es wurde weiter gefunden, daß die erfindungsgemäßen Verbindungen zu einer Reduktion der replikativen Intermediate der Hepatitisviren führen. Im Überstand der Zellkulturen wurde nach PEG Fällung der Gehalt an HBV DNA bestimmt. Dies geschah unter Verwendung einer nicht radioaktiv markierten HBV genomischen DNA Probe [Pauly, P., 1982, P.H.D. Thesis, University of Göttingen, F.R.G.; Köchel et al., 1990, EMBL, Accession-Nr. X 51790]. Gleichzeitig erfolgte der Nachweis der Beeinflussung der HBsAg Bildung mittels eines kommerziell erhältlichen Elisa Tests. Die angegebenen IC₅₀-Werte beziehen sich auf die Substratkonzentrationen, die unter den oben aufgeführten Testbedingungen eine 50%ige Hemmung der HBV DNA Konzentration im Überstand bewirken.

Series [1] can be described thus: Water solubility (qualitative remark on the lyophilisate). The class given is physicochemical. The conditions noted are these: lyophilisate of the sodium salt.
The mark [2] stands for this setting: HEP G2.2.15 cells, concentration giving 50% inhibition of HBV DNA concentration in supernatant.

Where two headings read alike, the source gives them in different places.

Consider `O=c1[nH]c(=O)n([C@H]2CC[C@@H](CO)O2)cc1C(F)(F)F` [Beispiel 2, β-2',3'-Didesoxy-5-(trifluormethyl)-uridin], for which the “Beeinflussung der Vitalität dieser Zellen” value in the series with HEL-Zellen and in the series with MEF-Zellen was > 250 µM each time. Further, in the series with Hepatitis B Virus (HBV) (setting [2]), the IC50 worked out at 0.01 nM.

For the compound `O=c1[nH]c(=O)n([C@H]2CC[C@@H](CO)O2)cc1C(F)(F)F.[Na]` [Beispiel 12, β-2',3'-Didesoxy-5-(trifluormethyl)-uridin-natriumsalz], the Wasserlöslichkeit entry in series [1] is recorded as “gut wasserlösliches”.

For the compound `Nc1ncnc2c1ncn2[C@H]1CC[C@@H](CO)O1` [DDA, reference compound], the IC50 in the series on Hepatitis B Virus (HBV) (reference substances in the same test system (HEP G2.2.15, HBV DNA in supernatant)) was > 100000 nM.

With `Nc1ccn([C@H]2CC[C@@H](CO)O2)c(=O)n1` [DDC, 2',3'-Didesoxy-cytidin, reference compound], the IC50 with Hepatitis B Virus (HBV) (Hepatitis B virus, HepG2.2.15, reference substances in the same test system (HEP G2.2.15, HBV DNA in supernatant)) was 5000 nM.

As to “β-5'-(1-Ethoxycarbonyloxy-eth-1-yl)-2',3'-didesoxy-5-(trifluormethyl)-uridin [Beispiel 5]”, the IC50 with Hepatitis B Virus (HBV) (setting [2]) was > 0.25 nM.
